Values quoted from earlier work in patent publication US12179232B2 (priority 2020, dated 2024).

Tested on: coronaviruses
Conditions: 0.05-0.2% benzalkonium chloride or 0.02% chlorhexidine digluconate

Compound	effectiveness of surface inactivation compared with ethanol, hydrogen peroxide, sodium hypochlorite
N=C(NCCCCCCNC(=N)NC(=N)Nc1ccc(Cl)cc1)NC(=N)Nc1ccc(Cl)cc1.O=C(O)[C@H](O)[C@@H](O)[C@H](O)[C@H](O)CO.O=C(O)[C@H](O)[C@@H](O)[C@H](O)[C@H](O)CO [chlorhexidine digluconate]	less effective
benzalkonium chloride	less effective
